# Source: publication PMC8619046, “ABCB1 and ABCG2 Control Brain Accumulation and Intestinal Disposition of the Novel ROS1/TRK/ALK Inhibitor Repotrectinib, While OATP1A/1B, ABCG2, and CYP3A Limit Its Oral Availability” (Pharmaceutics, 2021)
# Several values for one entry are separate records, joined by “and”; a condition that tells them apart may be missing. Equal entries are not always repeated. Where two headings read alike, the source gives them in different places.
# Columns and labels:
# [1] = tested on: T1, mouse Abcg2; assay: Transepithelial transport, MDCK-II cells transduced with mAbcg2; format: in vitro ADME; details: MDCK-II mAbcg2, 5 µM, read-out: efflux transport ratio r
# T1 construct: expressed in transfected cells; host or cells: MDCK-II cells stably transduced with mAbcg2 cDNA (made in the authors' institute)
# Text: Polarized Madin-Darby Canine Kidney (MDCK-II) cells (ECACC 00062107) stably transduced with either human (h) ABCB1, hABCG2 or mouse (m) Abcg2 cDNA were generated in our institute between 1995–2005. The proper identity and functionality, such as highly characteristic growth and drug transporter properties, including inhibitor sensitivity, were regularly checked in these epithelial cells. Mycoplasma routinely tested negative in these cells. The passage number was 10–15 when used in the transport experiments.
# Transepithelial transport experiments were performed as previously described with 12-well plates (Transwell 3414, Corning Inc., Kennebunk, ME, USA) containing microporous polycarbonate membrane filters (3.0 µm pore size, 12 mm diameter). […]
# After pre-incubation with 5 µM zosuquidar (ABCB1 inhibitor) and/or 5 µM Ko143 (ABCG2/Abcg2 inhibitor) in both compartments (when appropriate) for 1 h, the transport phase was initiated (t = 0) by replacing the medium in apical and basolateral compartments with fresh DMEM with 10% FBS and the appropriate inhibitor(s), and repotrectinib at 5 µM in the donor compartment. […] The active transport ratio r, calculated by dividing the amount of apically directed drug transport by basolaterally directed drug translocation after 8 h, was used to assess active transport of repotrectinib.
# [2] = 4-h oral plasma pharmacokinetics and tissue distribution, male wild-type and Oatp1a/1b−/− mice; format: in vivo; details: 10 mg/kg oral; for Tmax: Table S2, median (range); for Fold change Cliver / Fold change SIC (% of dose) / Fold change ratio (SIC (%)-to-plasma) / Fold change ratio (brain-to-plasma) / Fold change ratio (liver-to-plasma) / Fold change ratio (testis-to-plasma) / Fold increase Cbrain / Fold increase Ctestis / Fold increase AUC0-4h: vs wild-type; for Kp at 4 h / concentration at 4 h / Cmax / AUC(0-t): male, po; for AUC(0-t): read-out: AUC0-4h
# Text: Mice with similar average ages (and body weights) were randomly allocated in experimental groups as far as possible. Mice were maintained in a temperature-controlled and specific pathogen-free environment with a 12-h light and 12-h dark cycle and they received a standard diet (Transbreed, SDS Diets, Technilab-BMI, Someren, The Netherlands) and acidified water ad libitum. […] Given the objective main readout (repotrectinib plasma and tissue concentrations as measured by LC-MS/MS), no blinding method was applied.
# Repotrectinib was dissolved in dimethyl sulfoxide (DMSO) at a concentration of 50 mg/mL. This stock solution was first diluted 3-fold with ethanol/polysorbate 80 (1/1; v/v), followed by further dilution with a 10 mM hydrochloric acid solution, yielding a dosing solution of 1 mg/mL, freshly prepared on the day of experiment. Final concentrations of the solvents in the administration solution were: 2%, 2%, 2%, and 94% (all v/v) for DMSO, ethanol, polysorbate 80, and 10 mM hydrochloric acid solution, respectively.
# To minimize variation in absorption upon oral administration, mice were fasted for 2–3 h before repotrectinib (10 mg/kg body weight) was administered by gavage into the stomach at 10 µL/g body weight, with a blunt-ended needle. Tail vein serial blood samples were collected at 0.125, 0.25, 0.5, 1, 2 and 4 h using heparinized capillary tubes (Sarstedt, Nümbrecht, Germany) for the 8-h experiments. For the 4- and 2-h experiments, blood samplings were performed from the tail vein with the same schedule, but terminated at 2 and 1 h, respectively. Eight, four, or two hours after oral administration, mice were deeply anesthetized with 2–3% isoflurane, followed by cardiac puncture to collect blood in Eppendorf tubes containing heparin as an anticoagulant. Brain, liver, spleen, kidney, lung, small intestine, and testis were rapidly collected after sacrificing the mice by cervical dislocation. The small intestinal contents (SIC) were separated from small intestinal tissue (SI), which was flushed and rinsed with cold saline to remove any residual feces. Brain, liver, spleen, kidney, lung, SI, SIC, and testis were homogenized with 1, 3, 1, 2, 1, 3, 2, and 1 mL of 2% BSA (w/v), respectively. Plasma fraction was isolated from blood by centrifugation at 9000× g for 6 min at 4 °C. All samples were stored at −30 °C until analysis.
# A sensitive and specific liquid chromatography-tandem mass spectrometry method using protein precipitation pre-treatment was adopted to quantify the concentration of repotrectinib in DMEM medium, plasma samples and tissue homogenates.
# A non-compartmental model using the PKSolver add-in program for Microsoft Excel was adopted to calculate the pharmacokinetic parameters of repotrectinib. Oral availability was assessed by the plasma area under the curve (AUC), calculated using repotrectinib plasma concentration-time curves with the linear trapezoidal rule without extrapolating the infinity. Statistical testing was performed in Graphpad Prism7 (Graphpad Software, La Jolla, CA, USA). All data are presented as geometric means ± SD. Heteroscedastic data were log-transformed before applying statistical analysis. When differences between two groups were compared, the two-sided unpaired Student’s t test was used. One-way analysis of variance (ANOVA) was applied when multiple groups were compared, and the Bonferroni post hoc correction was used to accommodate multiple testing. Differences were considered statistically significant when P < 0.05.
# [3] = Table S2, male Oatp1a/1b−/− mice
# [4] = FVB, mouse, plasma, 10 mg/kg, Table S2, male Oatp1a/1b−/− mice
# [5] = FVB, mouse, plasma, 10 mg/kg, Table S2, male wild-type mice
smiles,measurement,setting,value
C[C@H]1CNC(=O)c2cnn3ccc(nc23)N[C@H](C)c2cc(F)ccc2O1 [repotrectinib],"efflux ratio at 8 h, 5 µM","[1]; pH 7.4, with zosuquidar 5 µM + Ko143 5 µM, + zosuquidar 5 µM + Ko143 5 µM",1.1
same,"efflux ratio at 8 h, 5 µM","[1]; pH 7.4, with zosuquidar 5 µM, + zosuquidar 5 µM",40
same,Tmax,"[2]; FVB, mouse, plasma, male wild-type mice, read-out: Tmax",30 min
same,SIC (% of dose),[2]; [3],8.52 ± 3.80 % of dose
same,SIC (%)-to-plasma ratio,[2]; [3],5.81 ± 2.09 *10-3
same,Fold change Cliver,[2]; [3],0.94
same,Fold change SIC (% of dose),[2]; [3],1.53
same,Fold change ratio (SIC (%)-to-plasma),[2]; [3],0.66
same,Fold change ratio (brain-to-plasma),[2]; [3],1.20
same,Fold change ratio (liver-to-plasma),[2]; [3],0.41
same,Fold change ratio (testis-to-plasma),[2]; [3],0.79
same,Fold increase Cbrain,[2]; [3],2.71
same,Fold increase Ctestis,[2]; [3],1.70
same,Fold increase AUC0-4h,"[2]; Table S2, male Oatp1a/1b−/− mice, 10 mg/kg",2.02 and 2
same,SIC (% of dose),"[2]; Table S2, male wild-type mice",5.56 ± 1.34 % of dose
same,SIC (%)-to-plasma ratio,"[2]; Table S2, male wild-type mice",8.79 ± 2.41 *10-3
same,Fold change Cliver,"[2]; Table S2, male wild-type mice",1.00
same,Fold change SIC (% of dose),"[2]; Table S2, male wild-type mice",1.00
same,Fold change ratio (SIC (%)-to-plasma),"[2]; Table S2, male wild-type mice",1.00
same,Fold change ratio (brain-to-plasma),"[2]; Table S2, male wild-type mice",1.00
same,Fold change ratio (liver-to-plasma),"[2]; Table S2, male wild-type mice",1.00
same,Fold change ratio (testis-to-plasma),"[2]; Table S2, male wild-type mice",1.00
same,Fold increase AUC0-4h,"[2]; Table S2, male wild-type mice",1.00
same,Fold increase Cbrain,"[2]; Table S2, male wild-type mice",1.00
same,Fold increase Ctestis,"[2]; Table S2, male wild-type mice",1.00
same,Tmax,[2]; male Oatp1a/1b−/− mice,0.5 (0.25-1) h
same,"liver-to-plasma ratio, fold decrease",[2]; male Oatp1a/1b−/− mice vs wild-type,2.5 fold
same,Kp at 4 h,"[2]; FVB, mouse, brain, 10 mg/kg, Table S2, male Oatp1a/1b−/− mice, read-out: Brain-to-plasma ratio",0.18 ± 0.04
same,concentration at 4 h,"[2]; FVB, mouse, brain, 10 mg/kg, Table S2, male Oatp1a/1b−/− mice, read-out: Cbrain",258 ± 31 ng/g
same,Kp at 4 h,"[2]; FVB, mouse, brain, 10 mg/kg, Table S2, male wild-type mice, read-out: Brain-to-plasma ratio",0.15 ± 0.03
same,concentration at 4 h,"[2]; FVB, mouse, brain, 10 mg/kg, Table S2, male wild-type mice, read-out: Cbrain",95.1 ± 23.5 ng/g
same,concentration at 4 h,"[2]; FVB, mouse, liver, 10 mg/kg, Table S2, male Oatp1a/1b−/− mice, read-out: Cliver",6240 ± 1400 ng/g
same,Kp at 4 h,"[2]; FVB, mouse, liver, 10 mg/kg, Table S2, male Oatp1a/1b−/− mice, read-out: Liver-to-plasma ratio",4.3 ± 0.5
same,concentration at 4 h,"[2]; FVB, mouse, liver, 10 mg/kg, Table S2, male wild-type mice, read-out: Cliver",6630 ± 1160 ng/g
same,Kp at 4 h,"[2]; FVB, mouse, liver, 10 mg/kg, Table S2, male wild-type mice, read-out: Liver-to-plasma ratio",10.5 ± 1.9
same,Cmax,[2]; [4],5070 ± 590 ng/mL
same,AUC(0-t),[2]; [4],14100 ± 1530 ng·h/mL
same,Cmax,[2]; [5],3080 ± 1440 ng/mL
same,AUC(0-t),[2]; [5],6990 ± 2460 ng·h/mL
same,concentration at 4 h,"[2]; FVB, mouse, testis, 10 mg/kg, Table S2, male Oatp1a/1b−/− mice, read-out: Ctestis",264 ± 37 ng/g
same,Kp at 4 h,"[2]; FVB, mouse, testis, 10 mg/kg, Table S2, male Oatp1a/1b−/− mice, read-out: Testis-to-plasma ratio",0.19 ± 0.05
same,concentration at 4 h,"[2]; FVB, mouse, testis, 10 mg/kg, Table S2, male wild-type mice, read-out: Ctestis",155 ± 55 ng/g
same,Kp at 4 h,"[2]; FVB, mouse, testis, 10 mg/kg, Table S2, male wild-type mice, read-out: Testis-to-plasma ratio",0.24 ± 0.07
